ChEMBL document CHEMBL4024707, “Using gene expression database to uncover biology functions of 1,4-disubstituted 1,2,3-triazole analogues synthesized via a copper (I)-catalyzed reaction” (Eur J Med Chem, 2017)

Tests used:
Type in all cases: functional
Hep 3B2 [1] = assay: Induction of autophagy in human Hep3B cells at 40 uM after 48 hrs by acridine orange staining based flow cytometry (reference value: 0.9 to 3%)
Hep 3B2 [2] = assay: Cell cycle arrest in human Hep3B cells assessed as accumulation at G2/M phase at 2.5 uM after 72 hrs by propidium iodide staining based flow cytometry (reference value: 28.7 to 32.3%)
Hep 3B2 [3] = assay: Up regulation of RPS6KA1 expression in human Hep3B cells at 1 uM after 6 to 24 hrs by L1000 expression profiling method relative to control

Compound	Activity (Hep 3B2 [1]) [%]	Activity (Hep 3B2 [2]) [%]	log2FC (Hep 3B2 [3])
COc1ccc(CNC(=O)Nc2ncc([N+](=O)[O-])s2)cc1	7.7	35.3	
O=C1COc2ccccc2N1Cc1cn(CCC2OCCO2)nn1			3.2908
